The values that follow come from patent US20260347337A1, “MICROBIOCIDAL PYRAZOLE DERIVATIVES” (priority 2022, published 2026).

Some results are limits rather than exact numbers.

The subject of one test is Pyrenophora teres. Description: Pyrenophora teres/barley/leaf disc preventative (net blotch). It counts as in vivo. Conditions: 200 ppm, barley leaf segments cv. Hasso, inoculated 2 days after application, assessed 5-7 days after application. The method, then:
Example B10: Pyrenophora teres/Barley/Leaf Disc Preventative (Net Blotch)
Barley leaf segments cv. Hasso are placed on agar in a multiwell plate (24-well format) and sprayed with the formulated test compound diluted in water. The leaf segments are inoculated with a spore suspension of the fungus 2 days after application. The inoculated leaf segments are incubated at 20° C. and 65% rh under a light regime of 12 h light/12 h darkness in a climate cabinet and the activity of a compound is assessed as disease control compared to untreated when an appropriate level of disease damage appears in untreated check leaf segments (5-7 days after application).

In the next test the test system is Alternaria solani. The test can be described thus: Alternaria solani/tomato/leaf disc (early blight). It counts as in vivo. Conditions: 200 ppm; tomato leaf disks cv. Baby; inoculated 2 days after application; assessed 5-7 days after application. The method, then: Example B1: Alternaria solani/Tomato/Leaf Disc (Early Blight)
Tomato leaf disks cv. Baby are placed on agar in multiwell plates (24-well format) and sprayed with the formulated test compound diluted in water. The leaf disks are inoculated with a spore suspension of the fungus 2 days after application. The inoculated leaf disks are incubated at 23° C./21° C. (day/night) and 80% rh under a light regime of 12/12 h (light/dark) in a climate cabinet and the activity of a compound is assessed as percent disease control compared to untreated when an appropriate level of disease damage appears on untreated check disk leaf disks (5-7 days after application).

For test [1], the system named is Blumeria graminis f. sp. tritici (Erysiphe graminis f. sp. tritici). The test can be described thus: Blumeria graminis f. sp. tritici/wheat/leaf disc preventative (powdery mildew on wheat). Conditions: 200 ppm, wheat leaf segments cv. Kanzler, inoculated 1 day after application, assessed 6-8 days after application. It counts as in vivo. The method, then:
Example B4: Blumeria graminis f. Sp. Tritici (Erysiphe graminis f. Sp. Tritici)/Wheat/Leaf Disc Preventative (Powdery Mildew on Wheat)
Wheat leaf segments cv. Kanzler are placed on agar in a multiwell plate (24-well format) and sprayed with the formulated test compound diluted in water. The leaf disks are inoculated by shaking powdery mildew infected plants above the test plates 1 day after application. The inoculated leaf disks are incubated at 20° C. and 60% rh under a light regime of 24 h darkness followed by 12 h light/12 h darkness in a climate chamber and the activity of a compound is assessed as percent disease control compared to untreated when an appropriate level of disease damage appears on untreated check leaf segments (6-8 days after application).

Another test concerns Plasmopara viticola. It counts as in vivo. Conditions: 200 ppm; grape vine leaf disks; preventative, inoculated 1 day after application; assessed 6-8 days after application.
Test [2] has as its system Mycosphaerella arachidis (Cercospora arachidicola). Description: Mycosphaerella arachidis (Cercospora arachidicola)/liquid culture (early leaf spot), inhibition of growth. It counts as cell-based. Conditions: liquid culture, PDB, 24° C., 4-5 days after application, read-out: control of Mycosphaerella arachidis (inhibition of growth vs untreated). The method, then: Example B9: Mycosphaerella arachidis (Cercospora arachidicola)/Liquid Culture (Early Leaf Spot)
(§1) Conidia of the fungus from cryogenic storage are directly mixed into nutrient broth (PDB potato dextrose broth). After placing a (DMSO) solution of test compound into a microtiter plate (96-well format), the nutrient broth containing the fungal spores is added. The test plates are incubated at 24° C. and the inhibition of growth is determined photometrically 4-5 days after application.

Test [3] concerns Phaeosphaeria nodorum (Septoria nodorum). Description: Phaeosphaeria nodorum (Septoria nodorum)/wheat/leaf disc preventative (glume blotch). It counts as in vivo. Conditions: 200 ppm, wheat leaf segments cv. Kanzler, inoculated 2 days after application, assessed 5-7 days after application. The method, then: Example B7: Phaeosphaeria nodorum (Septoria nodorum)/Wheat/Leaf Disc Preventative (Glume Blotch)
Wheat leaf segments cv. Kanzler are placed on agar in a multiwell plate (24-well format) and sprayed with the formulated test compound diluted in water. The leaf disks are inoculated with a spore suspension of the fungus 2 days after application. The inoculated test leaf disks are incubated at 20° C. and 75% rh under a light regime of 12 h light/12 h darkness in a climate cabinet and the activity of a compound is assessed as percent disease control compared to untreated when an appropriate level of disease damage appears in untreated check leaf disks (5-7 days after application).

The test system of test [4] is Mycosphaerella graminicola (Septoria tritici). The test can be described thus: Mycosphaerella graminicola (Septoria tritici)/liquid culture (Septoria blotch), inhibition of growth. It counts as cell-based. Conditions: Zymoseptoria tritici, liquid culture, PDB, 24° C., 4-5 days after application, read-out: control of Mycosphaerella graminicola (inhibition of growth vs untreated). The method, then: Example B12: Mycosphaerella graminicola (Septoria tritici)/Liquid Culture (Septoria Blotch)
as §1

Test [5] deals with Monographella nivalis (Microdochium nivale). Description: Monographella nivalis (Microdochium nivale)/liquid culture (foot rot cereals), inhibition of growth. Conditions: liquid culture, PDB, 24° C., 4-5 days after application, read-out: control of Monographella nivalis (inhibition of growth vs untreated). It counts as cell-based. The method, then: Example B8: Monographella nivalis (Microdochium nivale)/Liquid Culture (Foot Rot Cereals)
as §1

Test [6] relates to Glomerella lagenarium (Colletotrichum lagenarium). Description: Glomerella lagenarium (Colletotrichum lagenarium)/liquid culture (anthracnose), inhibition of growth. It counts as cell-based. Conditions: Colletotrichum orbiculare, liquid culture, PDB, 24° C., 3-4 days after application, read-out: control of Glomerella lagenarium (inhibition of growth vs untreated). The method, then:
Example B3: Glomerella lagenarium (Colletotrichum lagenarium)/Liquid Culture (Anthracnose)
Conidia of the fungus from cryogenic storage are directly mixed into nutrient broth (PDB potato dextrose broth). After placing a (DMSO) solution of test compound into a microtiter plate (96-well format), the nutrient broth containing the fungal spores is added. The test plates are incubated at 24° C. and the inhibition of growth is measured photometrically 3-4 days after application.

Test [7] relates to Botryotinia fuckeliana (Botrytis cinerea). The test can be described thus: Botryotinia fuckeliana (Botrytis cinerea)/liquid culture (gray mould), inhibition of growth. Conditions: liquid culture, Vogels broth, 24° C., 3-4 days after application, read-out: control of Botryotinia fuckeliana (inhibition of growth vs untreated). It counts as cell-based. The method, then: Example B2: Botryotinia fuckeliana (Botrytis cinerea)/Liquid Culture (Gray Mould)
Conidia of the fungus from cryogenic storage are directly mixed into nutrient broth (Vogels broth). After placing a (DMSO) solution of test compound into a microtiter plate (96-well format), the nutrient broth containing the fungal spores is added. The test plates are incubated at 24° C. and the inhibition of growth is determined photometrically 3-4 days after application.

The subject of test [8] is Fusarium culmorum. Description: microbe, parasite or virus in culture. It counts as cell-based. Conditions: read-out: control of Fusarium culmorum (inhibition of growth vs untreated).
Another test has as its system Sclerotinia sclerotiorum. Description: Sclerotinia sclerotiorum/liquid culture (cottony rot), inhibition of growth. It counts as cell-based. Conditions: liquid culture (mycelia fragments), PDB, 24° C., 3-4 days after application, read-out: control of Sclerotinia sclerotiorum (inhibition of growth vs untreated). The method, then:
Example B11: Sclerotinia sclerotiorum/Liquid Culture (Cottony Rot)
Mycelia fragments of a newly grown liquid culture of the fungus are directly mixed into nutrient broth (PDB potato dextrose broth). After placing a (DMSO) solution of test compound into a microtiter plate (96-well format) the nutrient broth containing the fungal material is added. The test plates are incubated at 24° C. and the inhibition of growth is determined photometrically 3-4 days after application.

The subject of test [9] is Fusarium culmorum. It counts as in vivo. Conditions: 200 ppm; wheat spikelets cv. Monsun; preventative, inoculated 1 day after application; assessed 6-8 days after application.

In the case of `Cn1cc(C(C)(CNC(=O)c2cnn(-c3ccc(F)cc3F)n2)c2cccc(Cl)n2)cn1` (centres unmarked) [Compound P-3, N-[2-(6-chloro-2-pyridyl)-2-(1-methylpyrazol-4-yl)propyl]-2-(2,4-difluorophenyl)triazole-4-carboxamide], the “control of Pyrenophora teres (disease control compared to untreated)” value with Pyrenophora teres is on record as “at least 80%”. In addition, the “control of Alternaria solani (percent disease control compared to untreated)” value with Alternaria solani was “at least 80%”.

By inhibition of growth is commonly meant the change of the read-out against control, counted positive when it falls. On to `Cn1cc(C(C)(CNC(=O)c2cn(-c3ccc(F)cc3F)nn2)c2cccc(Cl)n2)cn1` (centres unmarked) [Compound P-1, N-[2-(6-chloro-2-pyridyl)-2-(1-methylpyrazol-4-yl)propyl]-1-(2,4-difluorophenyl)triazole-4-carboxamide], for which the “control of Blumeria graminis f. sp. tritici (percent disease control compared to untreated)” value in test [1] is recorded as “at least 80%”. Also, the “control of Plasmopara viticola (percent disease control compared to untreated)” value in the test with Plasmopara viticola was “at least 80%”. Also, the inhibition of growth at 20 ppm (in test [2]; in test [4]; in test [5]; in test [6]; in test [7]; in the test with Fusarium culmorum [8]) was no less than 80% each time. In addition, the “control of Pyrenophora teres (disease control compared to untreated)” value in the test on Pyrenophora teres is recorded as “at least 80%”. In addition, the “control of Phaeosphaeria nodorum (percent disease control compared to untreated)” value in test [3] is recorded as “at least 80%”. The “control of Alternaria solani (percent disease control compared to untreated)” value with Alternaria solani is recorded as “at least 80%”.

As for `Cn1cc(C(C)(CNC(=O)c2cn(-c3ccc(F)cc3F)nn2)c2cccc(C#N)n2)cn1` (centres unmarked) [Compound P-9, N-[2-(6-cyano-2-pyridyl)-2-(1-methylpyrazol-4-yl)propyl]-1-(2,4-difluorophenyl)triazole-4-carboxamide], the “control of Blumeria graminis f. sp. tritici (percent disease control compared to untreated)” value in test [1] was “at least 80%”. The “control of Pyrenophora teres (disease control compared to untreated)” value in the test on Pyrenophora teres was “at least 80%”. In addition, the “control of Phaeosphaeria nodorum (percent disease control compared to untreated)” value in [3] is “at least 80%”. Moreover, the inhibition of growth at 20 ppm in test [4] and in test [5] was no less than 80% each time.

`Cn1cc(C(C)(CNC(=O)c2cn(-c3ccc(F)cc3F)nn2)c2cccc(Br)n2)cn1` (centres unmarked) [Compound P-8, N-[2-(6-bromo-2-pyridyl)-2-(1-methylpyrazol-4-yl)propyl]-1-(2,4-difluorophenyl)triazole-4-carboxamide]: the “control of Blumeria graminis f. sp. tritici (percent disease control compared to untreated)” value in test [1] is recorded as “at least 80%”. Moreover, the inhibition of growth at 20 ppm (in test [2]; in [4]; in test [5]; in test [6]; in test [7]; in the test on Fusarium culmorum [8]) was no less than 80% throughout. Moreover, the “control of Pyrenophora teres (disease control compared to untreated)” value in the test on Pyrenophora teres was “at least 80%”. Besides, the “control of Phaeosphaeria nodorum (percent disease control compared to untreated)” value in [3] is “at least 80%”. Further, in the test on Alternaria solani, the “control of Alternaria solani (percent disease control compared to untreated)” value was “at least 80%”.

Turning to `Cn1cc(C(C)(CNC(=O)c2nnn(-c3ccc(F)cc3F)n2)c2cccc(C#N)n2)cn1` (centres unmarked) [Compound P-5, N-[2-(6-cyano-2-pyridyl)-2-(1-methylpyrazol-4-yl)propyl]-2-(2,4-difluorophenyl)tetrazole-5-carboxamide], in test [1], the “control of Blumeria graminis f. sp. tritici (percent disease control compared to untreated)” value is “at least 80%”. For the same compound, the inhibition of growth at 20 ppm (in [2]; in the test on Sclerotinia sclerotiorum; in test [4]; in test [5]; in [6]; in [7]) was no less than 80% each time. The “control of Pyrenophora teres (disease control compared to untreated)” value in the test with Pyrenophora teres was “at least 80%”. Moreover, in [3], the “control of Phaeosphaeria nodorum (percent disease control compared to untreated)” value is given as “at least 80%”. Also, the “control of Alternaria solani (percent disease control compared to untreated)” value in the test with Alternaria solani was “at least 80%”.

Consider `Cn1cc(C(C)(CNC(=O)c2nnn(-c3ccc(F)cc3F)n2)c2cccc(Cl)n2)cn1` (centres unmarked) [Compound P-6, N-[2-(6-chloro-2-pyridyl)-2-(1-methylpyrazol-4-yl)propyl]-2-(2,4-difluorophenyl)tetrazole-5-carboxamide], for which, in test [1], the “control of Blumeria graminis f. sp. tritici (percent disease control compared to untreated)” value was “at least 80%”. Besides, the inhibition of growth at 20 ppm (in test [2]; in the test with Sclerotinia sclerotiorum; in test [4]; in [5]; in test [6]; in test [7]) was no less than 80% each time. The inhibition of growth at 20 ppm with Fusarium culmorum [8] is no less than 80%. The “control of Pyrenophora teres (disease control compared to untreated)” value in the test with Pyrenophora teres is reported as “at least 80%”. In test [3], the “control of Phaeosphaeria nodorum (percent disease control compared to untreated)” value was “at least 80%”. Besides, in the test on Fusarium culmorum [9], the “control of Fusarium culmorum (percent disease control compared to untreated)” value is “at least 80%”. In addition, in the test on Alternaria solani, the “control of Alternaria solani (percent disease control compared to untreated)” value is “at least 80%”.
